Source: US4323550A, “Halogenohydrates of N,N-disubstituted derivatives of piperazine having anticariogenic properties” (priority 1976, dated 1982)

Columns and labels:
[1] = Ionizable fluorine content; assay type: physicochemical
[2] = pH of the difluorohydrate solution; assay type: physicochemical; conditions: solution titering 1.23% fluorine
Experimental: (§1) The radioactive solutions are obtained by dissolving 69 mg of the difluorohydrate and 81.3 mg of NaF, respectively, in 1 and 3 ml of fluorine 18 solution without entrainer. Thus solutions titering 1.23% fluorine are obtained.
(§2) As the difluorohydrate solution is already at pH=3.5, it is sufficient to acidify the NaF solution by addition of about 0.2 ml hydrochloric acid 6 M, to 3 ml of the radioactive solution.

in vivo = assay type: in vivo; conditions: in vivo; rat, oral; Lichfield and Wilcoxon
Experimental: (§3) By way of example there are described below the comparative tests made on difluorohydrate of N,N'-di(hydroxyethyl) piperazine and on fluorohydrate of hexadecylamine or "ELMEX 242".
(§4) The acute toxidity was studies in rats and in mice.
(§5) The animals came from a homogeneous breed. The mice weighed between 19 and 21 g and the rats weighed from 120 to 140 g. The mice were grouped in lots of 10 and the rats in lots of 8.
(§6) The administrations took place orally at a volume of 0.5 ml per 20 g of mouse and 1 ml per 100 g of rat. The LD50 was determined by the method of Lichfield and Wilcoxon.
(§7) As regards the difluorohydrate of N,N'-di(hydroxyethyl) piperazine, the administered solution was prepared by diluting the mother solution to 65.4%, the dilutions being made after having weighed this solution. The administered dose is expressed by weight, taking account of the indicated strength of this solution.
(§8) For the solid "ELMEX 242" an aqueous suspension was prepared with the aid of solubilizing agents (e.g. Tween-polyoxyethylene sorbitan monolaurate). A very thick suspension is then obtained which tends to foam heavily, is difficult to get into the esophageal sound, and the determination of its volume is rendered difficult by the foam.
(§9) The results obtained with the "ELMEX" are therefore rather approximate.

[3] = Penetration of fluorine 18 into dental enamel after topical application (Muhlemann biopsy); parameters: species or system children
Text: The anticariogenic activity of the difluorohydrate of N,N'-di(hydroxy-ethyl) piperazine has been evidenced by comparison with sodium fluoride known for its cariopreventive topical properties. A comparative study has been made of the penetration into the dental enamel of the fluorine contained in the molecule according to the invention and of the fluorine contained in sodium fluoride.
For this comparison the difluorohydrate of N,N'-di(hydroxy-ethyl) piperazine was marked at the fluorine 18, by isotopic exchange by dissolving some crystals of the product according to the invention in a solution of pure fluorine 18 without entrainer. The same was done for the sodium fluoride.
The study of the penetration of the fluorine into the enamel was made on several teeth to compare the behavior of the product of the invention and of sodium fluoride in supplying fluorine and in the penetration of the latter into the deepest layers of the dental tissue.
The tests were performed on 30 premolar teeth taken from normal children 9 to 11 years old. Eighteen teeth were treated by topical application of the radioactive solutions of the difluoro-hydrate of N,N'-di(hydroxy-ethyl) piperazine or of NaF adjusted to pH=3.5; the other 12 were treated with the same solutions adjusted to a pH of 7.4.
as §1, §2
In this case, the difluorohydrate's nature of organic salt can be preserved and its solution neutralized at 1.23% of fluorine in 1 ml by addition of about 110 mg of its N,N'-di(hydroxyethyl) piperazine base.
For the experimentation one determines two enamel plagues on each tooth. For this, one applies on the crowns, separated from each other by 2 or 3 mm, two round disks of a diameter of 3 mm cut out from adhesive tape. The crown is then covered with a layer of impermeable varnish. When the varnish is dry, the patches of adhesive tape are removed, thus bearing the two zones of enamel to be treated.
The spot application of the fluorinated solution is done by means of a sponge imbibed with 0.5 ml of the solution. This sponge is inserted in a polyethylene tube to limit the surface of contact between tooth and sponge to the circumference of the enamel zone treated.
The sampling of the enamel is done by Muhlemann's biopsy technique: A patch of blotting paper impregnated with 4 microliters of perchloric acid 2 M is applied on the trated enamel for 30 seconds. The enamel is dried with a second patch of blotting paper. It is on these patches which contain the dissolved enamel that we measure the radioactivity.
There are given in Table I all the results relating to the acid treatment, in Table II all the results relating to the treatment at neutral pH. The fluorine values are those obtained by measuring the radioactivity of the samples.
The columns […] and N2 represent the mass of fluorine measured on the second biopsy.
We have marked R1 and R1 and R2 the ratios G1 /G2 and N1 /N2, and R3 the ratio. [formula] R1 and R2 permitting to compare the quantities of fluorine at the same depth. R3 permits comparing the accumulation of fluorine in the tooth.

mice = assay: Acute oral toxicity in mice; assay type: in vivo
Experimental: as §3, §4, §5, §6, §7, §8, §9

[4] = Acute oral toxicity in mice; assay type: in vivo; conditions: in vivo, mouse, read-out: dose up to which no symptom occurs
Experimental: as §3, §4, §5, §6, §7, §8, §9

## OCCN1CCN(CCO)CC1 [DIFLUOROHYDRATE OF N,N'-DI(HYDROXY-ETHYL) PIPERAZINE]
[1]
  ionizable fluorine content: 15.18%
[2]
  pH of the solution: 3.5
In vivo
  LD50 at 240 h: 790 mg/kg
[3]; acid medium, 18 teeth
  cases with R1 less than 1: 16 cases
  cases with R3 between 1 and 1.7: 8 cases
  cases with R3 greater than 1.7: 4 cases
  cases with R3 less than 1: 5 cases
[3]; acid medium, 18 teeth, standard deviation 0.6
  mean value of R3: 1.5
[3]; neutral medium, 12 teeth
  cases with R1 greater than 1: 10 cases
  cases with R3 between 1 and 1.7: 7 cases
  cases with R3 greater than 1.7: 2 cases
  cases with R3 less than 1: 3 cases
  mean value of R1: 3.0
[3]; neutral medium, 12 teeth, standard deviation 0.4
  average of R3: 1.2
[3]; pH 3.5 versus pH 7.4
  average fluorine sampled in the two biopsies, acid pH compared with neutral pH: 2.6
[3]; same pH conditions
  anticariogenic action compared with sodium fluoride: effects comparable to those of sodium fluoride
mice; conclusion from mouse and rat, solution versus suspension
  toxicity compared with ELMEX 242: clearly more toxic than "ELMEX 242"
mice; mouse
  course: death and recovery: Death occurs after one hour at the highest doses.
  symptoms: At higher doses the mice are totally immobile. They show light trembling, but over the entire body, also diarrhea.
mice; mouse, 200 mg/kg, D + 1, 10 per lot
  Deaths: 0
mice; mouse, 200 mg/kg, D + 2, 10 per lot
  Deaths: 0
mice; mouse, 200 mg/kg, D + 5, 10 per lot
  Deaths: 0
mice; mouse, 200 mg/kg, D + 10, 10 per lot
  Deaths: 0
mice; mouse, 300 mg/kg, D + 1, 10 per lot
  Deaths: 0
mice; mouse, 300 mg/kg, D + 2, 10 per lot
  Deaths: 0
mice; mouse, 300 mg/kg, D + 5, 10 per lot
  Deaths: 0
mice; mouse, 300 mg/kg, D + 10, 10 per lot
  Deaths: 0
mice; mouse, 400 mg/kg, D + 1, 10 per lot
  Deaths: 2
mice; mouse, 400 mg/kg, D + 2, 10 per lot
  Deaths: 3
mice; mouse, 400 mg/kg, D + 5, 10 per lot
  Deaths: 3
mice; mouse, 400 mg/kg, D + 10, 10 per lot
  Deaths: 3
mice; mouse, 500 mg/kg, D + 1, 10 per lot
  Deaths: 3
mice; mouse, 500 mg/kg, D + 2, 10 per lot
  Deaths: 5
mice; mouse, 500 mg/kg, D + 5, 10 per lot
  Deaths: 5
mice; mouse, 500 mg/kg, D + 10, 10 per lot
  Deaths: 5
mice; mouse, 600 mg/kg, D + 1, 10 per lot
  Deaths: 4
mice; mouse, 600 mg/kg, D + 2, 10 per lot
  Deaths: 7
mice; mouse, 600 mg/kg, D + 5, 10 per lot
  Deaths: 8
mice; mouse, 600 mg/kg, D + 10, 10 per lot
  Deaths: 8
mice; mouse, 700 mg/kg, D + 1, 10 per lot
  Deaths: 9
mice; mouse, 700 mg/kg, D + 2, 10 per lot
  Deaths: 10
mice; mouse, 700 mg/kg, D + 5, 10 per lot
  Deaths: 10
mice; mouse, 700 mg/kg, D + 10, 10 per lot
  Deaths: 10
mice; mouse, 800 mg/kg, D + 1, 10 per lot
  Deaths: 7
mice; mouse, 800 mg/kg, D + 2, 10 per lot
  Deaths: 8
mice; mouse, 800 mg/kg, D + 5, 10 per lot
  Deaths: 9
mice; mouse, 800 mg/kg, D + 10, 10 per lot
  Deaths: 9
mice; mouse, 1000 mg/kg, D + 1, 10 per lot
  Deaths: 10
mice; mouse, 1000 mg/kg, D + 2, 10 per lot
  Deaths: 10
mice; mouse, 1000 mg/kg, D + 5, 10 per lot
  Deaths: 10
mice; mouse, 1000 mg/kg, D + 10, 10 per lot
  Deaths: 10
mice; mouse, doses above 400 mg/kg
  persistence of the ill state: at least 24 hours
  time to onset of coma: about 45 minutes
[4]
  NOAEL at 240 h: ≥ 400 mg/kg
